{
  "source": "patent US9902702B2",
  "about": "“Spirocycloheptanes as inhibitors of rock” (BRISTOL-MYERS SQUIBB COMPANY, priority 2014, dated 2018)",
  "data": [
    {"molecular_target": "ROCK2 (Homo sapiens, UniProt O75116)", "sequence (O75116 whole entry, species assumed)": "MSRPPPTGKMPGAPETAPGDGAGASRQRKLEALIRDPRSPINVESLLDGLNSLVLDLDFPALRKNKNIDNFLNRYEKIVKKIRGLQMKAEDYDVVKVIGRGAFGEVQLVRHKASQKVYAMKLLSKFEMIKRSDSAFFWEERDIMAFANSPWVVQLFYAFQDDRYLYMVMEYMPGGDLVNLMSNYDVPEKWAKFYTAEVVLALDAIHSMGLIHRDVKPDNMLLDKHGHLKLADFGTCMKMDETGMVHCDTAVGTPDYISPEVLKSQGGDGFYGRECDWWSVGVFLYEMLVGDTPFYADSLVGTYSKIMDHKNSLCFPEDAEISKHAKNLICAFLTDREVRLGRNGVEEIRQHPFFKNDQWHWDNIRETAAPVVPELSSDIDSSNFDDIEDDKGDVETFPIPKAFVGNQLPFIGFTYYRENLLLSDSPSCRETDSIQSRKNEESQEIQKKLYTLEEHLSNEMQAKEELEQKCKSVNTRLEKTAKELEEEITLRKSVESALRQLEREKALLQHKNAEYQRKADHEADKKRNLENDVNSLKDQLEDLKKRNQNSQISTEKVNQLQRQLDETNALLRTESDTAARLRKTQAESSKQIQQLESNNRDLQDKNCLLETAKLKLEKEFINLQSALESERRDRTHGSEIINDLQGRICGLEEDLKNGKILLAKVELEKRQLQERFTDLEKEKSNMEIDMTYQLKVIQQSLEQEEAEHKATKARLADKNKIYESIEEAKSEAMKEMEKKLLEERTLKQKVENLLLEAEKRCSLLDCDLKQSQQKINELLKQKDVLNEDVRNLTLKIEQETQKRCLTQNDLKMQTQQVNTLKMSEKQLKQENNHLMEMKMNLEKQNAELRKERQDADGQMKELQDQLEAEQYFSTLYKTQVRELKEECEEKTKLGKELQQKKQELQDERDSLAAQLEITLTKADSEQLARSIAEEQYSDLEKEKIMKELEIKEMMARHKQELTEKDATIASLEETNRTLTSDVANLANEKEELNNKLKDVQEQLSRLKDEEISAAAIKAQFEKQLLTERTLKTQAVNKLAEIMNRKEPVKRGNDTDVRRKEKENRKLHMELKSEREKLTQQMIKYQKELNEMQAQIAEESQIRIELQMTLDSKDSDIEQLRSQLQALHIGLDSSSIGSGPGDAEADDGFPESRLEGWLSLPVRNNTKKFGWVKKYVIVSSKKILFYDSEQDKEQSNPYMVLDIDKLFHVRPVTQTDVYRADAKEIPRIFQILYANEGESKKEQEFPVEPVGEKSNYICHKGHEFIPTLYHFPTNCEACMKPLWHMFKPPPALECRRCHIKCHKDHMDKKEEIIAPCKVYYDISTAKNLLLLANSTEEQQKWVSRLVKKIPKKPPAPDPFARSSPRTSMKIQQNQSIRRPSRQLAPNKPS", "assay": "ROCK assay: phosphorylation of FITC peptide substrate, LABCHIP 3000 mobility shift", "type": "biochemical", "details": "5 μM ATP, 1.5 μM peptide substrate; read-out: ROCK2 Activity (ROCK IC50 range)", "outline": "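IC50 values come from curve-fitting percent kinase inhibition across a compound dilution series. The reaction is started with Rho kinase variant in HEPES pH 7.5 buffer with MgCl2, Brij-35 and DTT, with 5 μM ATP, 1.5 μM FITC-labelled peptide and under 2% DMSO. After EDTA quench, product and substrate are separated by microfluidic mobility shift.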", "units": {"IC50": "nM"}, "values": [
      {"smiles": "CC(C)(O)Cn1nc(C(=O)NC2CC3(C2)CC(c2n[nH]c(=O)c4ccccc24)C3)c2ccc(/C=C\\C3CC3)cc21", "note": "(stereo not drawn) [Example 151, 6-((Z)-2-cyclopropylvinyl)-1-(2-hydroxy-2-methylpropyl)-N-((αR)-6-(4-oxo-3,4-dihydrophthalazin-1-yl)spiro[3.3]heptan-2-yl)-1H-indazole-3-carboxamide]", "IC50": "5.1 to 15"},
      {"smiles": "CC(C)(O)Cn1nc(C(=O)N[C@H]2CC3(C2)C[C@H](c2n[nH]c(=O)c4ccccc42)C3)c2ccc(Br)cc21", "note": "(stereo partly drawn) [Example 152, 6-bromo-1-(2-hydroxy-2-methylpropyl)-N-((αR)-6-(4-oxo-3,4-dihydrophthalazin-1-yl)spiro[3.3]heptan-2-yl)-1H-indazole-3-carboxamide]", "IC50": "2.01 to 5"},
      {"smiles": "COc1ccc(-c2ccc3c(C(=O)NC4CC5(C4)CC(c4n[nH]c(=O)c6ccccc46)C5)nn(CC(C)(C)O)c3c2)cc1", "note": "(stereo not drawn) [Example 153, 1-(2-hydroxy-2-methylpropyl)-6-(4-methoxyphenyl)-N-((αR)-6-(4-oxo-3,4-dihydrophthalazin-1-yl)spiro[3.3]heptan-2-yl)-1H-indazole-3-carboxamide]", "IC50": "2.01 to 5"},
      {"smiles": "Cn1cc(-c2ccc3c(C(=O)NC4CC5(C4)CC(c4n[nH]c(=O)c6ccccc46)C5)nn(CC(C)(C)O)c3c2)nn1", "note": "(stereo not drawn) [Example 154, 1-(2-hydroxy-2-methylpropyl)-6-(1-methyl-1H-1,2,3-triazol-4-yl)-N-((αR)-6-(4-oxo-3,4-dihydrophthalazin-1-yl)spiro[3.3]heptan-2-yl)-1H-indazole-3-carboxamide]", "IC50": "2.01 to 5"},
      {"smiles": "Cc1noc(C)c1-c1ccc2c(C(=O)NC3CC4(C3)CC(c3n[nH]c(=O)c5ccccc35)C4)nn(CC(C)(C)O)c2c1", "note": "(stereo not drawn) [Example 155, 6-(3,5-dimethylisoxazol-4-yl)-1-(2-hydroxy-2-methylpropyl)-N-((αR)-6-(4-oxo-3,4-dihydrophthalazin-1-yl)spiro[3.3]heptan-2-yl)-1H-indazole-3-carboxamide]", "IC50": "2.01 to 5"},
      {"smiles": "CC(C)(O)Cn1nc(C(=O)NC2CC3(C2)CC(c2n[nH]c(=O)c4ccccc24)C3)c2ccc(-c3cccc(Cl)c3)cc21", "note": "(stereo not drawn) [Example 156, 6-(3-chlorophenyl)-1-(2-hydroxy-2-methylpropyl)-N-((αR)-6-(4-oxo-3,4-dihydrophthalazin-1-yl)spiro[3.3]heptan-2-yl)-1H-indazole-3-carboxamide]", "IC50": "5.1 to 15"},
      {"smiles": "COc1ccccc1-c1ccc2c(C(=O)NC3CC4(C3)CC(c3n[nH]c(=O)c5ccccc35)C4)nn(CC(C)(C)O)c2c1", "note": "(stereo not drawn) [Example 157, 1-(2-hydroxy-2-methylpropyl)-6-(2-methoxyphenyl)-N-((αR)-6-(4-oxo-3,4-dihydrophthalazin-1-yl)spiro[3.3]heptan-2-yl)-1H-indazole-3-carboxamide]", "IC50": "0.2 to 2"},
      {"smiles": "COc1cccc(-c2ccc3c(C(=O)NC4CC5(C4)CC(c4n[nH]c(=O)c6ccccc46)C5)nn(CC(C)(C)O)c3c2)c1", "note": "(stereo not drawn) [Example 158, 1-(2-hydroxy-2-methylpropyl)-6-(3-methoxyphenyl)-N-((αR)-6-(4-oxo-3,4-dihydrophthalazin-1-yl)spiro[3.3]heptan-2-yl)-1H-indazole-3-carobxamide]", "IC50": "2.01 to 5"},
      {"smiles": "CC(C)(O)Cn1nc(C(=O)NC2CC3(C2)CC(c2n[nH]c(=O)c4ccccc24)C3)c2ccc(-c3c(F)cccc3F)cc21", "note": "(stereo not drawn) [Example 159, 6-(2,6-difluorophenyl)-1-(2-hydroxy-2-methylpropyl)-N-((αR)-6-(4-oxo-3,4-dihydrophthalazin-1-yl)spiro[3.3]heptan-2-yl)-1H-indazole-3-carboxamide]", "IC50": "2.01 to 5"},
      {"smiles": "CC(C)(O)Cn1nc(C(=O)NC2CC3(C2)CC(c2n[nH]c(=O)c4ccccc24)C3)c2ccc(-c3ccccc3C#N)cc21", "note": "(stereo not drawn) [Example 160, 6-(2-cyanophenyl)-1-(2-hydroxy-2-methylpropyl)-N-((αR)-6-(4-oxo-3,4-dihydrophthalazin-1-yl)spiro[3.3]heptan-2-yl)-1H-indazole-3-carboxamide]", "IC50": "0.2 to 2"},
      {"smiles": "CC(C)(O)Cn1nc(C(=O)NC2CC3(C2)CC(c2n[nH]c(=O)c4ccccc24)C3)c2ccc(-c3cnoc3)cc21", "note": "(stereo not drawn) [Example 161, 1-(2-hydroxy-2-methylpropyl)-6-(isoxazol-4-yl)-N-((αR)-6-(4-oxo-3,4-dihydrophthalazin-1-yl)psiro[3.3]heptan-2-yl)-1H-indazole-3-carboxamide]", "IC50": "5.1 to 15"},
      {"smiles": "CC(C)(O)Cn1nc(C(=O)NC2CC3(C2)CC(F)(c2n[nH]c(=O)c4ccccc24)C3)c2ccccc21", "note": "(stereo not drawn) [Example 162, N-(6-fluoro-6-(4-oxo-3,4-dihydrophthalazin-1-yl)spiro[3.3]heptan-2-yl)-1-(2-hydroxy-2-methylpropyl)-1H-indazole-3-carboxamide]", "IC50": "15.1 to 100"},
      {"smiles": "CC(C)(O)Cn1nc(C(=O)NC2CC3(C2)CC(F)(c2n[nH]c(=O)c4ccccc24)C3)c2ccc(F)cc21", "note": "(stereo not drawn) [Example 163, 6-fluoro-N-(6-fluoro-6-(4-oxo-3,4-dihydrophthalazin-1-yl)spiro[3.3]heptan-2-yl)-1-(2-hydroxy-2-methylpropyl)-1H-indazole-3-carboxamide]", "IC50": "15.1 to 100"},
      {"smiles": "O=C(NC1CC2(C1)CC(F)(c1n[nH]c(=O)c3ccccc13)C2)c1cnn2ccccc12", "note": "(stereo not drawn) [Example 164, N-(6-fluoro-6-(4-oxo-3,4-dihydrophthalazin-1-yl)spiro[3.3]heptan-2-yl)pyrazolo[1,5-α]pyridine-3-carboxamide]", "IC50": "15.1 to 100"},
      {"smiles": "O=C(N[C@H]1CC2(C1)C[C@H](c1n[nH]c(=O)c3ccccc31)C2)c1cnn2cc(N3CCCC3=O)ccc12", "note": "(stereo partly drawn) [Example 165, N-((aR)-6-(4-oxo-3,4-dihydrophthalazin-1-yl)spiro[3.3]heptan-2-yl)-6-(2-oxopyrrolidin-1-yl)pyrazolo[1,5-a]pyridine-3-carboxamide]", "IC50": "5.1 to 15"},
      {"smiles": "O=C(NC1CC2(C1)CC(c1n[nH]c(=O)c3ccccc13)C2)c1cnn2cc(C3CC3)ccc12", "note": "(stereo not drawn) [Example 166, 6-cyclopropyl-N-((αR)-6-(4-oxo-3,4-dihydrophthalazin-1-yl)spiro[3.3]heptan-2-yl)pyrazolo[1,5-α]pyridine-3-carboxamide]", "IC50": "0.2 to 2"},
      {"smiles": "O=C(NC1CC2(C1)CC(c1n[nH]c(=O)c3ccccc13)C2)c1cnn2cc(-c3cnn(C(F)F)c3)ccc12", "note": "(stereo not drawn) [Example 167, 6-(1-(difluoromethyl)-1H-pyrazol-4-yl)-N-((αR)-6-(4-oxo-3,4-dihydrophthalazin-1-yl)spiro[3.3]heptan-2-yl)pyrazolo[1,5-α]pyridine-3-carboxamide]", "IC50": "0.2 to 2"},
      {"smiles": "N#Cc1ccc2c(C(=O)NC3CC4(C3)CC(c3n[nH]c(=O)c5ccccc35)C4)cnn2c1", "note": "(stereo not drawn) [Example 168, 6-cyano-N-((αR)-6-(4-oxo-3,4-dihydrophthalazin-1-yl)spiro[3.3]heptan-2-yl)pyrazolo[1,5-α]pyridine-3-carboxamide]", "IC50": "15.1 to 100"},
      {"smiles": "O=C(NC1CC2(C1)CC(c1n[nH]c(=O)c3ccccc13)C2)c1cnn2cc(-n3ccccc3=O)ccc12", "note": "(stereo not drawn) [Example 169, N-((αR)-6-(4-oxo-3,4-dihydrophthalazin-1-yl)spiro[3.3]heptan-2-yl)-6-(2-oxopyridin-1(2H)-yl)pyrazolo[1,5-α]pyridine-3-carboxamide]", "IC50": "5.1 to 15"},
      {"smiles": "Cn1cc(-c2ccc3c(C(=O)NC4CC5(C4)CC(c4n[nH]c(=O)c6ccccc46)C5)cnn3c2)cn1", "note": "(stereo not drawn) [Example 170, 6-(1-methyl-1H-pyrazol-4-yl)-N-((αR)-6-(4-oxo-3,4-dihydrophthalazin-1-yl)spiro[3.3]heptan-2-yl)pyrazolo[1,5-α]pyridine-3-carboxamide]", "IC50": "0.2 to 2"},
      {"smiles": "O=C(NC1CC2(C1)CC(c1n[nH]c(=O)c3ccccc13)C2)c1cnn2cc(-c3cnn(CC(O)C(F)(F)F)c3)ccc12", "note": "[Example 171, N-((αR)-6-(4-oxo-3,4-dihydrophthalazin-1-yl)spiro[3.3]heptan-2-yl)-6-(1-((S)-3,3,3-trifluoro-2-hydroxypropyl)-1H-pyrazol-4-yl)pyrazolo[1,5-α]pyridine-3-carboxamide]", "IC50": "2.01 to 5"},
      {"smiles": "O=C(NC1CC2(C1)CC(c1n[nH]c(=O)c3ccccc13)C2)c1cnn2cc(-c3c[nH]nc3C(F)(F)F)ccc12", "note": "(stereo not drawn) [Example 172, N-((αR)-6-(4-oxo-3,4-dihydrophthalazin-1-yl)spiro[3.3]heptan-2-yl)-6-(3-(trifluoromethyl)-1H-pyrazol-4-yl)pyrazolo[1,5-α]pyridine-3-carboxamide]", "IC50": "2.01 to 5"},
      {"smiles": "O=C(NC1CC2(C1)CC(c1n[nH]c(=O)c3ccccc13)C2)c1cnn2cc(-c3nccs3)ccc12", "note": "(stereo not drawn) [Example 173, N-((αR)-6-(4-oxo-3,4-dihydrophthalazin-1-yl)spiro[3.3]heptan-2-yl)-6-(thiazol-2-yl)pyrazolo[1,5-α]pyridine-3-carboxamide]", "IC50": "0.2 to 2"},
      {"smiles": "O=C(NC1CC2(C1)CC(c1n[nH]c(=O)c3ccccc13)C2)c1cnn2cc(-c3cn[nH]c3)ccc12", "note": "(stereo not drawn) [Example 174, N-((αR)-6-(4-oxo-3,4-dihydrophthalazin-1-yl)spiro[3.3]heptan-2-yl)-6-(1H-pyrazol-4-yl)pyrazolo[1,5-α]pyridine-3-carboxamide]", "IC50": "0.2 to 2"},
      {"smiles": "Cc1nnn(C)c1-c1ccc2c(C(=O)NC3CC4(C3)CC(c3n[nH]c(=O)c5ccccc35)C4)cnn2c1", "note": "(stereo not drawn) [Example 175, 6-(1,4-dimethyl-1H-1,2,3-triazol-5-yl)-N-((αR)-6-(4-oxo-3,4-dihydrophthalazin-1-yl)spiro[3.3]heptan-2-yl)pyrazolo[1,5-α]pyridine-3-carboxamide]", "IC50": "15.1 to 100"},
      {"smiles": "O=C(NC1CC2(C1)CC(c1n[nH]c(=O)c3ccccc13)C2)c1cnn2cc(-n3ccnc3)ccc12", "note": "(stereo not drawn) [Example 176, 6-(1H-imidazol-1-yl)-N-((αR)-6-(4-oxo-3,4-dihydrophthalazin-1-yl)spiro[3.3]heptan-2-yl)pyrazolo[1,5-α]pyridine-3-carboxamide]", "IC50": "5.1 to 15"},
      {"smiles": "O=C(N[C@H]1CC2(C1)C[C@H](c1n[nH]c(=O)c3ccccc31)C2)c1cnn2cc(-n3cccn3)ccc12", "note": "(stereo partly drawn) [Example 177, N-((αR)-6-(4-oxo-3,4-dihydrophthalazin-1-yl)spiro[3.3]heptan-2-yl)-6-(1H-pyrazol-1-yl)pyrazolo[1,5-α]pyridine-3-carboxamide]", "IC50": "0.2 to 2"}
    ]}
  ]
}
